Experimental data as given in patent publication US11167015B2, “Arginine and its use as a T cell modulator” (INSTITUTE FOR RESEARCH IN BIOMEDICINE, priority 2016, dated 2021).

Key:
human naïve CD4+ T cells [1] = assay: kinetic metabolome analysis of activated T cells; type: cell-based; conditions: added to the culture medium at the same concentration as L-arginine (3 mM)
Experimental: (B) Differential analysis of the glycolytic pathway between naïve CD4^+ T cells cultured in L-Arg medium or Ctrl medium, 96 h after activation. Log 2 fold changes of proteins and metabolites are color-coded. […] 3-P-Glycerate and 2-P-Glycerate could not be distinguished as they have the same mass. (C) 72 h-activated T cells were plated in fresh medium and glucose consumption was determined enzymatically after 24 h; n=9 from three donors. (D) Seahorse experiment performed with activated (96 h) T cells from one donor. Oligomycin was injected after 56 min, FCCP after 96 min, and antimycin (to inhibit the respiratory chain) after 136 min. Data are representative of 5 independent experiments with different donors.
(A) Human naïve CD4^+ T cells were activated in normal medium or in L-Arg medium. Nitric oxide formation was measured using DAF-FM diacetate at different time points.
Naïve CD4^+ T cells were either analyzed directly after isolation or at different time points after activation with CD3 and CD28 antibodies. Cells were washed twice in 96-well plates with 75 mM ammonium carbonate at pH 7.4 and snap frozen in liquid nitrogen. Metabolites were extracted three times with hot (>70° C.) 70% ethanol. Extracts were analyzed by flow injection—time of flight mass spectrometry on an Agilent 6550 QTOF instrument operated in the negative mode, as described previously (Fuhrer et al., 2011). Typically 5,000-12,000 ions with distinct mass-to-charge (m/z) ratio could be identified in each batch of samples. Ions were putatively annotated by matching their measured mass to that of the compounds listed by the KEGG database for Homo sapiens, allowing a tolerance of 0.001 Da. Only deprotonated ions (without adducts) were considered in the analysis. In case of multiple matching, such as in the case of structural isomers, all candidates were retained.

activated CD4+ T cells [2] = assay: IL-2 withdrawal assay and assessment of cell viability, CD4+ T cells; type: cell-based, human; conditions: for survival of activated CD4+ T cells in the absence of exogenous cytokines: metabolites 3 mM, except for spermidine 0.1 mM, 5 days after IL-2 withdrawal
Experimental: Naïve CD4 T cells were activated with plate-bound CD3 and CD28 antibodies. 48 h after activation IL-2 was added to culture media (500 U ml^−1). After a further 3 days of culturing, cells were washed, counted and equal cell numbers were plated in medium devoid of IL-2. The withdrawal medium was no longer supplemented with e.g. L-arginine. Cell viability was assessed with annexin V.

human naïve CD4+ T cells [3] = assay: T cell proliferation (CellTrace Violet dilution); type: cell-based
Experimental: (§1) FIG. 10. […] (A) Kinetics of T cell proliferation. Human naïve CD4+ T cells were labeled with CellTraceViolet (CTV) and activated in Ctrl medium or in L-Arg medium or in medium supplemented with 3 mM D-arginine or 3 mM L-arginine together with 3 mM L-lysine. Cell divisions were monitored at 48 h and 72 h by flow cytometry. (B) CTV-labeled CD4+ T cells were activated in normal medium or L-Arg medium and the dilution of CTV was measured over time by flow cytometry. n=5 from two donors. (C) 3H-L-arginine uptake by 3 day-activated CD4+ T cells during a 15 minutes pulse. Where indicated, 3 mM L-arginine, D-arginine or L-lysine was added to the culture medium as a competitive uptake inhibitor. n=7 for control, n=9 for L-Arg, n=5 for D-Arg, and n=9 for L-Lys. Bars represent the s.e.m.

activated CD4+ T cells [4] = assay: 3H-arginine uptake assay and calculation of proteome incorporation; type: cell-based, human; conditions: 3 mM added as competitive uptake inhibitor, 15 minutes pulse, 3 day-activated CD4+ T cells
Experimental: as §1

arginase = arginase inhibition; cited from earlier work
96 h-activated T cells = assay: 13C-L-arginine metabolic tracing (metabolic flux experiments); type: cell-based, human; conditions: addition of arginase inhibitor, 13C6-L-arginine pulse
Experimental: FIG. 2. L-arginine is rapidly metabolized upon activation (A) Intracellular abundance of L-arginine in non-activated (non-act) and activated naïve CD4^+ T cells (CD3+CD28 antibodies). Boxplot, n=30 from three donors, each in a different color; a.u. arbitrary units. (B) Kinetics of ^3H-L-arginine uptake during a 15 min pulse. Box plot, n=5 from three donors. (C) Uptake, proteome incorporation and intracellular abundance of the indicated amino acids. Barplot (left): 5×10^4 cells were activated for 4 days and consumption of amino acids from medium was analyzed. Essential amino acids are in grey; n=4 from four donors, error bars represent s.e.m. […] Heat map (right): Intracellular amino acid abundance relative to naive T cells over time as determined by MS; n=30 from three donors. […] Black dots are metabolites that were not detected by MS. Only enzymes that were detected by MS are shown. […] 96 h-activated T cells were pulsed with ^13C6-L-arginine and the metabolic fate was analyzed by LC-MS/MS at different time points. AFL, Apparent fractional labeling; n=4 from two donors. ^13C Citrulline was not detected.
Naïve CD4^+ T cells were activated and 4 days, later extensively washed and pulsed with L-arginine free RPMI medium containing 1 mM [U-^13C]-L-Arginine hydrochloride (Sigma). […] Metabolites were extracted and analyzed by HILIC LC-MS/MS. […]

[5] = tested on: C56BL/6 wild type (Wt) or Arg2−/− T cells; assay: In vitro T cell survival with wild type or Arg2-/- mouse T cells; type: cell-based; conditions: norNOHA 500 μM, 2 days after IL-2 withdrawal

## NC(=O)NCCC[C@H](N)C(=O)O [L-citrulline, reference compound]
Human naïve CD4+ T cells [1]
  effects on metabolism: only had minor effects
Activated CD4+ T cells [2]
  survival of activated CD4+ T cells in the absence of exogenous cytokines: had no effect

## NC(N)=O [urea]
Activated CD4+ T cells [2]
  survival of activated CD4+ T cells in the absence of exogenous cytokines: had no effect

## N=C(N)NCCC[C@@H](N)C(=O)O [D-arginine]
Human naïve CD4+ T cells [3]; 3 mM in medium
  onset of proliferation: not affected
Activated CD4+ T cells [4]
  L-arginine uptake: inhibit L-arginine uptake
Activated CD4+ T cells [2]
  survival of activated CD4+ T cells in the absence of exogenous cytokines: decreased T cell survival significantly

## NC(=O)C1CCCc2c1[nH]c1ccc(Cl)cc21 (centres unmarked) [Ex-527]
Activated CD4+ T cells [2]; Ex-527 5 μM added at activation
  L-arginine-mediated increase in survival in the presence of the Sirtuin-1 inhibitor: comparable to controls

## N=C(NO)NCC[C@H](N)C(=O)O [norNOHA, N^ω-Hydroxy-nor-L-arginine]
arginase
  intracellular L-arginine levels: increase intracellular L-arginine levels
96 h-activated T cells
  conversion of L-arginine into agmatine: did not affect
  conversion of L-arginine into ornithine, putrescine, spermidine and proline: markedly reduced
[5]
  survival of Arg2−/− T cells after IL-2 withdrawal: did not affect survival
  survival of wild type T cells after IL-2 withdrawal: increasing the survival

## NCCCCNCCCN [spermidine]
Activated CD4+ T cells [2]
  survival of activated CD4+ T cells in the absence of exogenous cytokines: decreased T cell survival

## N=C(N)NCCCCN [agmatine]
Activated CD4+ T cells [2]
  survival of activated CD4+ T cells in the absence of exogenous cytokines: decreased T cell survival

## CN(CC(=O)O)C(=N)N [creatine]
Activated CD4+ T cells [2]
  survival of activated CD4+ T cells in the absence of exogenous cytokines: had no effect

## O=C(O)[C@@H]1CCCN1 [proline, L-proline]
Activated CD4+ T cells [2]
  survival of activated CD4+ T cells in the absence of exogenous cytokines: had no effect

## N[C@@H](CSCCB(O)O)C(=O)O [BEC, S-(2-boronoethyl)-L-cysteine]
arginase
  intracellular L-arginine levels: increase intracellular L-arginine levels

## NCCCC[C@H](N)C(=O)O [L-lysine]
Human naïve CD4+ T cells [3]; 3 mM L-lysine added to L-arginine-supplemented cultures
  onset of proliferation: not affected
Activated CD4+ T cells [4]
  L-arginine uptake: inhibit L-arginine uptake
Activated CD4+ T cells [2]
  survival of activated CD4+ T cells in the absence of exogenous cytokines: decreased T cell survival significantly

## Cl.N=C(N)NCCC[C@H](N)C(=O)O [L-arginine-HCl, L-arginine hydrochloride]
Activated CD4+ T cells [2]
  survival of activated CD4+ T cells in the absence of exogenous cytokines: enhanced T cell survival to a similar extent

## NCCCCN [putrescine]
Activated CD4+ T cells [2]
  survival of activated CD4+ T cells in the absence of exogenous cytokines: decreased T cell survival

## [N]=O [nitric oxide]
Activated CD4+ T cells [2]; nitric oxide synthase inhibitors DiMeArg or L-NAME at 1 mM
  T cell survival (role of nitric oxide): had no effect
